Test results: patent US20250288561A1, “NEZULCITINIB FOR DELIVERY BY NEBULIZED ORAL INHALATION” (THERAVANCE BIOPHARMA R&D IP, LLC, priority 2022, published 2025)

Legend:
[1] = Phase 1 open-label study: safety and tolerability of single inhaled nezulcitinib doses under supplemental oxygenation scenarios; type: in vivo, human
Source text: Part B: assessed the safety and tolerability of nezulcitinib following single inhaled doses administered in the setting of various supplemental oxygenation scenarios in healthy participants.
Safety was monitored through physical examinations including, at a minimum, examination of respiratory, cardiovascular, and gastrointestinal systems, with the option for further focused examination of additional systems as necessary based on reported symptoms/AEs, vital signs, 12-lead safety ECGs, spirometry, body weight monitoring, pulse oximetry, clinical laboratory tests (including, but not limited to, hematology, clinical chemistry profile, coagulation, and urinalysis), and AEs.
AEs were coded using the most current version of Medical Dictionary for Regulatory Activities (MedDRA®).
Summaries of administration-emergent adverse events (AEAEs) were presented by SOC, preferred term, and the frequency and percentage of participants reporting each observed event. The frequency of participants who experience AEAEs was summarized overall and by study part and administration. AEs were also summarized by relationship to administration (study drug) and severity.
All clinical laboratory results, 12-lead safety ECGs, spirometry measurements, pulse oximetry, vital signs measurements, and their change from baseline, were summarized by study part, administration, and time point of collection.
Safety (i.e., physical examinations, vital signs, 12-lead safety ECGs, spirometry, clinical laboratory tests, and AEs) were assessed throughout the study; blood, urine, and expired air samples were collected for safety assessments. Blood oxygenation levels were monitored via pulse oximetry prior to and during administration of supplemental oxygen. Discontinued participants were not replaced.

NK cells = assay: Earlier phase 1 clinical trial: absolute NK cell counts after multiple dosing; type: in vivo, human; conditions: any dose level (1, 3, or 10 mg)
Procedure: (§1) Compound 1 was evaluated in a phase 1 clinical trial and dosed in humans through nebulized inhalation at 1 mg, 3 mg, and 10 mg for up to 7 days. […] The pharmacokinetics of inhaled compound 1 are consistent with low plasma exposures after inhaled administration. […] Additionally, absolute NK cell counts were evaluated after multiple-dosing to assess the potential for systemic pharmacologic effects associated with JAK inhibition by compound 1. […] The lack of reduction in NK cell counts is also consistent with the lack of systemic JAK inhibition. […] Other systemically mediated hematological changes associated with JAK inhibition, including neutrophil and hemoglobin reductions as well as lipid changes, were not observed with inhaled administration of compound 1.

[2] = Earlier phase 1 clinical trial: safety, tolerability, hematological and lipid changes; type: in vivo, human
Procedure: as §1
The selected dose of 3 mg in the present study was consistent with the dose in a recently completed Phase 2 study. In addition, the 3 mg dose ensured adequate characterization of the nezulcitinib PK profile. Dose levels up to 9 mg of nezulcitinib were also evaluated (Administration D2). This dose level was within the range of doses tested previously (up to 10 mg of nezulcitinib) in healthy participants and those with COVID-19 in previous clinical studies.

[3] = Phase 2 clinical study in subjects infected with COVID: safety; type: in vivo, human
Source text: Compound 1 was well-tolerated. Adverse events and serious adverse events occurred in 34.0% and 9.7% of subjects treated with compound 1, and 41.2% and 15.7% of subjects treated with placebo, respectively. Adverse events of liver abnormalities or disease occurred in 9.7% and 7.8% of subjects treated with compound 1 and placebo, respectively. Serious infections and venous thromboembolism occurred in 1.0% and none of the subjects treated with compound 1, and 2.0% and 4.9% in subjects treated with placebo, respectively.

JAK2 = JAK2 (Homo sapiens, UniProt O60674); assay: JAK enzyme inhibition; type: biochemical
JAK3 = target: T1, JAK3 (Homo sapiens, UniProt P52333); assay: JAK enzyme inhibition; type: biochemical
T1 sequence (P52333 1-1124): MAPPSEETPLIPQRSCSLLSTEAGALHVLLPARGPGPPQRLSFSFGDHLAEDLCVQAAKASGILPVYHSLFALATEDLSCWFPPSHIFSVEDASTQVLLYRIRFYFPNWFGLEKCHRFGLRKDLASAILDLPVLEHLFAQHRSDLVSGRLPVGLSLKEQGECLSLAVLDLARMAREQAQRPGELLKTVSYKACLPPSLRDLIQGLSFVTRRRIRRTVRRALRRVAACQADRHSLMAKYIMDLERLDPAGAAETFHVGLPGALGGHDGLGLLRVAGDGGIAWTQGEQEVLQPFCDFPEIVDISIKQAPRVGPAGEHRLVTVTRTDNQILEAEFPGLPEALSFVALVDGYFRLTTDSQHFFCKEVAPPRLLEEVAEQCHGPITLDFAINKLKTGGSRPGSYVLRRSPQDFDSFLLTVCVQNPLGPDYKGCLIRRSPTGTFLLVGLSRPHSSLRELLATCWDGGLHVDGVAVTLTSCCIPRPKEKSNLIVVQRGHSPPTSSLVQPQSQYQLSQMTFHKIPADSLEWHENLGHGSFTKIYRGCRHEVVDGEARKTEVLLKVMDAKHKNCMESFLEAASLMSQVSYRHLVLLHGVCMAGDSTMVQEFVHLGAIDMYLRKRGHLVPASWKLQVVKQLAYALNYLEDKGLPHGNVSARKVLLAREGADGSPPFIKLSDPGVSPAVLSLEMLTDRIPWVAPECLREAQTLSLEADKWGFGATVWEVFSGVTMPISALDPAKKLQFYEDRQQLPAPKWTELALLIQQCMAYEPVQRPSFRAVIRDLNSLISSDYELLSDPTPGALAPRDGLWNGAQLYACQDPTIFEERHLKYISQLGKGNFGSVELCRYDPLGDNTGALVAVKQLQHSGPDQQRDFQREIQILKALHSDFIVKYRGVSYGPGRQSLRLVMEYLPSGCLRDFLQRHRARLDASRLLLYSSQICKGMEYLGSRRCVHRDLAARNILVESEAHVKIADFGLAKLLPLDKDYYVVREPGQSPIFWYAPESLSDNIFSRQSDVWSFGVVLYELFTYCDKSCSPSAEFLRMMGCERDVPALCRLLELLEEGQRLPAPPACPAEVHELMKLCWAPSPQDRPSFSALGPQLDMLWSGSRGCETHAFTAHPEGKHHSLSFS

Sulfation metabolism = type: in vitro ADME
IFNγ signaling = assay: Inhibition of cytokine signaling; type: cell-based

Chain of JAK2 (O60674 whole entry): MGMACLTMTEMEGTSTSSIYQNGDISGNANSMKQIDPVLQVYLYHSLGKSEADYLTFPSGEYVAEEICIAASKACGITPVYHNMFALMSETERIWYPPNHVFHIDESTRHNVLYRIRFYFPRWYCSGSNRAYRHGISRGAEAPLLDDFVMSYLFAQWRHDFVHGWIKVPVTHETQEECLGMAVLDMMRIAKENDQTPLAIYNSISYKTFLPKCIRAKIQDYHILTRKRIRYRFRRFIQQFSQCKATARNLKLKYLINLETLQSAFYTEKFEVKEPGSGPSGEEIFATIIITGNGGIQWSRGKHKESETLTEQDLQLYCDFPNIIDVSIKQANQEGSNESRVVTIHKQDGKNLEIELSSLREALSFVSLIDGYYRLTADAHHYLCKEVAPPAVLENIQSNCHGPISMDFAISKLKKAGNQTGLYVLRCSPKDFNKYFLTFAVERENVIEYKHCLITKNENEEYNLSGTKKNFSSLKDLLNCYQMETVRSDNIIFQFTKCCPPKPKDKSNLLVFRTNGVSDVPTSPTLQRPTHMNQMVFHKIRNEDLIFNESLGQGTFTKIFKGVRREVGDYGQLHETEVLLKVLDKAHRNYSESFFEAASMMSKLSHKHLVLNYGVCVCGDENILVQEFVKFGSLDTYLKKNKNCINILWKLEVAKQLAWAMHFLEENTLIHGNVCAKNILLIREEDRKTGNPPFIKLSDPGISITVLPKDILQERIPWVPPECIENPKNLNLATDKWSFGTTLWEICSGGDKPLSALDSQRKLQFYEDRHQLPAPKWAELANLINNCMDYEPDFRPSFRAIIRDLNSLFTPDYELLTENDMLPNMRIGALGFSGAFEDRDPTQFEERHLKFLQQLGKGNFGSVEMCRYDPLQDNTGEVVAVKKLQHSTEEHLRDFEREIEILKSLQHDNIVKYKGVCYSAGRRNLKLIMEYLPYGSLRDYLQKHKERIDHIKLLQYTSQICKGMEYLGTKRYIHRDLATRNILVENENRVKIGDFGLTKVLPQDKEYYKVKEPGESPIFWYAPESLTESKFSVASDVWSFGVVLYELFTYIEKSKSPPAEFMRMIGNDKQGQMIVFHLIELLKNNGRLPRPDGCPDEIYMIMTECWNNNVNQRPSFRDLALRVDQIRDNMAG

For CCc1cc(O)ccc1-c1ccc2c(-c3nc4c([nH]3)CN(C(C)C)[C@H](C(=O)N3CC(N(C)C)C3)C4)n[nH]c2c1 [Compound 1, (S)-(3-(dimethylamino)azetidin-1-yl)(2-(6-(2-ethyl-4-hydroxyphenyl)-1H-indazol-3-yl)-5-isopropyl-4,5,6,7-tetrahydro-3H-imidazo[4,5-c]pyridin-6-yl)methanone], the “adverse events, subjects” value ([1]; 2 of 14 subjects, nasal congestion, epistaxis, considered not related to study drug) was 14.3%, the “safety laboratory measures, electrocardiograms, vital signs, pulse oximetry, spirometry” value ([1]; all administrations) was “no clinically relevant changes” and the “severity of adverse events” value ([1]; all adverse events) was “mild severity”. The “absolute NK cell counts relative to baseline” value (NK cells) was “No reductions in NK cells were observed”, the “neutrophil and hemoglobin reductions, lipid changes” value ([2]; inhaled administration) was “not observed” and the safety and tolerability ([2]; single and multiple doses of 1, 3, and 10 mg, healthy adult participants) was “safe and well tolerated”. The tolerability [3] was “well-tolerated”, the “serious infections, subjects” value ([3]; placebo 2.0%) was 1.0% and the “venous thromboembolism, subjects” value ([3]; placebo 4.9%) was “none”. The “adverse events of liver abnormalities or disease, subjects” value ([3]; placebo 7.8%) was 9.7%, the “serious adverse events, subjects” value ([3]; placebo 15.7%) was 9.7% and the “adverse events, subjects” value ([3]; placebo 41.2%) was 34.0%. The “inhibition of JAK2” value (JAK2) was “potent inhibitor”, the “inhibition of JAK3” value (JAK3) was “potent inhibitor” and the “sulfation metabolism compared to corresponding fluorinated analog” value (Sulfation metabolism) was “significantly less sulfation metabolism”. The “inhibition of IFNγ signaling” value (IFNγ signaling) was “shown to inhibit”.
